Experimental data: US20100105722A1, “Substituted 4,5,6,7-tetrahydrothienopyridines as KCNQ2/3 Modulators” (GRUENENTHAL GmbH, priority 2008, published 2010)

Assays:
[1] = test system: formalin-induced nociceptive behavior; test: Formalin test in the rat (phase II, chronic pain component); format: in vivo; details: for Formalin test rat i.v. % reduction in nociceptive behavior: phase II, Table 3; for Formalin test rat i.v. @ 10 mg/kg % reduction in noiceptive behavior: comparison experiments table
Protocol: Formalin Test in the Rat The formalin test (Dubuisson, D. and Dennis, S. G., 1977, Pain, 4, 161-174) represents a model for both acute and chronic pain. In the studies presented here, the chronic pain component (phase II of the formalin test; time period 21-27 min after formalin administration) was evaluated. A biphase nociceptive reaction is induced in freely mobile test animals by a single formalin injection into the dorsal side of a rear paw, the reaction being detected by observation of three clearly distinguishable behavior patterns. Formalin is administered subcutaneously into the dorsal side of the right rear paw of each animal in a volume of 50 μl and a concentration of 5%. The vehicle and the test substances are administered intravenously 5 min, or orally 30 min, before the formalin injection. The specific changes in behavior, such as lifting and shaking of the paw, weight displacement of the animal and biting and licking reactions, are observed and recorded continuously up to 60 min after the formalin administration. […] Rats of the strain Sprague Dawley (Janvier, Belgium) are used as the animal strain. The weight of the animals is 180-200 g; the size of the group was n=10.

[2] = target: T1, hKCNQ2/3 (Homo sapiens, UniProt O43525+O43526); test: Fluorescence assay using a voltage sensitive dye (fluorimetry); format: cell-based; details: for Emax at 10 µM: relative to retigabine = 100%
T1 construct: expressed in transfected cells; host or cells: CHO-K1
Protocol: Fluorescence Assay using a Voltage Sensitive Dye
Human CHO-K1 cells expressing KCNQ2/3 channels are cultivated adherently at 37° C., 5% CO2 and 95% humidity in cell culture bottles (e.g. 80 cm^2 TC flasks, Nunc) with DMEM-high glucose (Sigma Aldrich, D7777) including 10% FCS (PAN Biotech, e.g. 3302-P270521) or alternatively MEM Alpha Medium (1×, liquid, Invitrogen, #22571), 10% fetal calf serum (FCS) (Invitrogen, #10270-106, heat-inactivated) and the necessary selection antibiotics.
Before being sown out for the measurements, the cells are washed with a 1×DPBS buffer without Ca^2+/Mg^2+ (e.g. Invitrogen, #14190-094) and detached from the bottom of the culture vessel by means of Accutase (PAA Laboratories, #L11-007) (incubation with Accutase for 15 min at 37° C.). The cell count then present is determined using a CASY™ cell counter (TCC model, Schärfe System) in order subsequently to apply, depending on the density optimization for the individual cell line, 20,000-30,000 cells/well/100 μl of the described nutrient medium to 96-well measuring plates of the Corning™ CellBIND™ type (Flat Clear Bottom Black Polystyrene Microplates, #3340). Incubation is then carried out for one hour at room temperature, without gassing or adjusting the humidity, followed by incubation for 24 hours at 37° C., 5% CO2 and 95% humidity.
The voltage-sensitive fluorescent dye from the Membrane Potential Assay Kit (Red™ Bulk format part R8123 for FLIPR, MDS Analytical Technologies™) is prepared by dissolving the contents of a vessel Membrane Potential Assay Kit Red Component A in 200 ml of extracellular buffer (ES buffer, 120 mM NaCl, 1 mM KCl, 10 mM HEPES, 2 mM CaCl2, 2 mM MgCl2, 10 mM glucose; pH 7.4). After removal of the nutrient medium, the cells are washed with 200 μl of ES buffer, then covered with a layer of 100 μl of the dye solution prepared above and incubated for 45 min at room temperature with the exclusion of light.
The fluorescence measurements are carried out with a BMG Labtech FLUOstar™, BMG Labtech NOVOstar™ or BMG Labtech POLARstar™ instrument (525 nm excitation, 560 nm emission, Bottom Read mode). After incubation of the dye, 50 μl of the test substances in the desired concentrations, or 50 μl of ES buffer for control purposes, are introduced into separate cavities of the measuring plate and incubated for 30 min at room temperature while being shielded from light. The fluorescence intensity of the dye is then measured for 5 min and the fluorescence value F1 of each well is thus determined at a given, constant time. 15 μl of a […] KCl solution ([…]) are then added to each well. The change in fluorescence is subsequently measured until all the relevant measured values have been obtained (mainly 5-30 min). At a given time after KCl application, a fluorescence value F2 is determined, in this case at the time of the fluorescence peak.
For calculation, the fluorescence intensity F2 is compared with the fluorescence intensity F1, and the agonistic activity of the target compound on the potassium channel is determined therefrom. F2 and F1 are calculated as follows: […]
In order to determine whether a substance has agonistic activity, […]
for example, can be compared with […]
is determined by adding to the reaction batch only the buffer solution instead of the test substance, determining the value F1K of the fluorescence intensity, adding the potassium ions as described above, and measuring a value F2K of the fluorescence intensity. F2K and F1K are then calculated as follows: […]
A substance has an agonistic activity on the potassium channel when […]
Independently of the comparison of […]
it is possible to conclude that a target compound has agonistic activity if an increase in […]
is to be observed as the dosage of the target compound increases.
Calculations of EC50 and IC50 values are carried out with the aid of ‘Prism v4.0’ software (GraphPad Software™).

[3] = target: T1, hKCNQ2/3; test: Voltage clamp (patch-clamp) measurements on stably transfected hKCNQ2/3 CHO-K1 cell line; format: cell-based; details: at -40 mV, relative to retigabine (10 μM) = 100%, read-out: patch-clamp % Efficacy @ 10 μM (retigabine = 100%)
Protocol: Voltage Clamp Measurements
In order to confirm a KCNQ2/3-agonistic action of the substances electro-physiologically, patch-clamp measurements (Hamill O P, Marty A, Neher E, Sakmann B, Sigworth F J.: Improved patch-clamp techniques for high-resolution current recording from cells and cell-free membrane patches, Pflugers Arch. 1981 August; 391(2):85-100) were carried out in voltage clamp mode on a stably transfected hKCNQ2/3 CHO-K1 cell line. After formation of the gigaseal, the cells were first clamped at a holding potential of −60 mV. Thereafter, depolarizing voltage jumps were applied up to a potential of +20 mV (increment: 20 mV, duration: 1 second) in order to confirm the functional expression of KCNQ2/3-typical currents. The testing of the substances was carried out at a potential of −40 mV. The increase in current induced by retigabine (10 μM) at −40 mV was first recorded as a positive control on each cell. After complete washing out of the retigabine effect (duration: 80 s), the test substance (10 μM) was applied. The increase in current induced by the test substance was standardized to the retigabine effect and indicated as the relative efficacy (see below).

[4] = CHO-K1, 10 μM, CHO-K1 cells expressing KCNQ2/3, Table 3, read-out: Fluorimetry % Efficacy @ 10 μM (reti-gabine = 100%)
[5] = CHO-K1 cells expressing KCNQ2/3, Table 3
[6] = 10 μM, comparison experiments table, read-out: Fluorimetry % Efficacy @ 10 μM (retigabine = 100%)

Emax at 10 µM [2, 4] [%]	EC50 [2, 5] [µM]	SMILES	also measured
74	0.062	O=C(CCC(=O)N1CCc2sccc2C1c1ccccc1)NCc1ccccc1C(F)(F)F (stereo not shown) [compound 17]	Formalin test rat i.v. % reduction in nociceptive behavior ([1]; dose 10.0 mg/kg): 15 (10.0) %
165	0.758	O=C(CCC(=O)N1CCc2sccc2C1c1ccccc1)NCc1cccc(C(F)(F)F)c1 (stereo not shown) [Illustrative compound 2, 4-oxo-4-(4-phenyl-6,7-dihydrothieno[3,2-c]pyridin-5(4H)-yl)-N-(3-(trifluoromethyl)benzyl)butanamide]	Formalin test rat i.v. @ 10 mg/kg % reduction in noiceptive behavior [1]: 56%; Formalin test rat i.v. % reduction in nociceptive behavior ([1]; dose 10.0 mg/kg): 56 (10.0) %; Emax at 10 µM [2, 6]: 145%; EC50 ([2]; comparison experiments table): 1.44 µM; Emax at 10 µM [3]: 106%
	0.108	O=C(CCC(=O)N1CCc2sccc2C1C1CC1)NCc1cccc(C(F)(F)F)c1 (stereo not shown) [compound 260]	Formalin test rat i.v. % reduction in nociceptive behavior ([1]; dose 4.64 mg/kg): 46 (4.64) %; Emax at 10 µM [3]: 91%
148	0.079	Cc1ccccc1C1c2ccsc2CCN1C(=O)CCC(=O)NCc1cccc(C(F)(F)F)c1 (stereo not shown) [compound 8]	Formalin test rat i.v. % reduction in nociceptive behavior ([1]; dose 4.64 mg/kg): 11 (4.64) %
168	1.69	O=C(CCC(=O)N1CCc2sccc2C1c1cccs1)NCc1cccc(C(F)(F)F)c1 (stereo not shown) [compound 1]	Emax at 10 µM [2, 6]: 165%; EC50 ([2]; comparison experiments table): 0.76 µM; Emax at 10 µM [3]: 97%
		O=C(CCC(=O)N1CCn2cccc2C1c1ccccc1)NCc1cccc(C(F)(F)F)c1 (stereo not shown) [Example No. 2 of WO 2008/046582, reference compound]	Formalin test rat i.v. @ 10 mg/kg % reduction in noiceptive behavior [1]: no effect; Emax at 10 µM [2, 6]: 115%; EC50 ([2]; comparison experiments table): 2.81 µM
	0.431	O=C(CCC(=O)N1CCc2sccc2C1c1ccccc1)N1CCc2c(cccc2C(F)(F)F)C1 (stereo not shown) [compound 271]	
19		Cc1cccc(C2c3ccsc3CCN2C(=O)CCC(=O)NCc2ccccn2)c1 (stereo not shown) [compound 54]	
	0.962	O=C(CCC(=O)N1CCc2ccsc2C1C1CCCCC1)NCc1cccc(C(F)(F)F)c1 (stereo not shown) [compound 275]	
	0.084	O=C(CCC(=O)N1CCc2sccc2C1CCc1ccccc1)NCc1cccc(C(F)(F)F)c1 (stereo not shown) [compound 261]	
38		Cc1ccc(C2c3ccsc3CCN2C(=O)CCC(=O)NCCc2ccccc2)cc1 (stereo not shown) [compound 49]	
61	> 1.66	Cc1ccc(C2c3ccsc3CCN2C(=O)CCC(=O)NCc2cccc(C(F)(F)F)c2)cc1 (stereo not shown) [compound 5]	
